Assay results: patent US5670500A (priority 1995, dated 1997)

Tests used:
[1] = in vivo; cited from earlier work
topoisomerase II = settings: cited from earlier work
Colon 26 = assay: Efficacy in mouse tumor models: Colon Carcinoma 26; format: in vivo; settings: Colon 26 mouse model
Experimental: (§1) The efficacy of the compounds of the present invention was also tested in vivo using three well-known mouse tumor models: L1210, Lewis Lung, and Colon Carcinoma 26.

topoisomerase I = biological target: T1, topoisomerase I (Homo sapiens, UniProt P11387); settings: cited from earlier work
T1 sequence (P11387 1-765): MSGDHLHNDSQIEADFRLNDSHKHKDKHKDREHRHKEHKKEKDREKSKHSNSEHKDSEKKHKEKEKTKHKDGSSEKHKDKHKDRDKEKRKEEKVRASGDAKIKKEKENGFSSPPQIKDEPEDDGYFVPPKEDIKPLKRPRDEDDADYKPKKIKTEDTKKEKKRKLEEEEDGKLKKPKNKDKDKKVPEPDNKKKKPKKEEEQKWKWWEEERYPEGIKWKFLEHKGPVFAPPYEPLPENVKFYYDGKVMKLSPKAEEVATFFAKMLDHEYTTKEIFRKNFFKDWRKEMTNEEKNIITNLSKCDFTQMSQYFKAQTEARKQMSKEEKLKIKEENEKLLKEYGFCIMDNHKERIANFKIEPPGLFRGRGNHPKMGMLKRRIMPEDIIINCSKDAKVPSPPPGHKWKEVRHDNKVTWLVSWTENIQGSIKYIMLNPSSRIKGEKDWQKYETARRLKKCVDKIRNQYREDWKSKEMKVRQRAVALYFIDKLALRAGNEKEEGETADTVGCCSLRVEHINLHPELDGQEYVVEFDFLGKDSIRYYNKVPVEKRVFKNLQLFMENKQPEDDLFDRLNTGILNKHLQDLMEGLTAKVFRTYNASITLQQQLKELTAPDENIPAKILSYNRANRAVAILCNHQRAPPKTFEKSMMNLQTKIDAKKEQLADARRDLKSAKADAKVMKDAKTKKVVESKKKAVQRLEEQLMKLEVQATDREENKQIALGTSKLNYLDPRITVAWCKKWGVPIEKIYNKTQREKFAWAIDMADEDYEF

[2] = system: wild-type (AUX-B1) Chinese Hamster ovary cells; assay: CHO Microtiter Cytotoxicity Assay, wild type; format: cell-based; settings: Cricetulus griseus, AuxB1, 72 h, 3 days, XTT
Experimental: (§2) CHO Microtiter Cytotoxicity Assay
(§3) Chinese Hamster ovary cells are grown in Alpha MEM Medium with L-glutamine and nucleosides and containing 10% fetal bovine serum and 100 units per mL penicillin-streptomycin in 75 cm^2 canted neck tissue culture flasks. They are harvested from these flasks using 0.5% trypsin. Microtiter plates (96-well, sterile, flat bottom) (Corning 25860) are seeded with 1.6×10^3 wild-type (AUX-B1) Chinese Hamster ovary cells per well or 2×10^3 multidrug resistant (CH^R C5) Chinese Hamster ovary cells per well. The plates are incubated at 37° C., 5% CO2 overnight to allow the cells to attach. The outside wells of each plate are not used, due to evaporation during the incubation time. They are filled with medium and used as blanks. The next day, the medium is aspirated from the wells and 180 μL of fresh medium is added to each well. Compounds are diluted from stock solution in DMSO into fresh medium to a 10X concentration containing 2% DMSO. Twenty μL of this is then added to the 180 μL of fresh meduim in the wells. The plates are then incubated for another 3 days at 37° C., 5% CO2. […] The plate is then read on a UV Max plate reader, using wells without cells .(i.e., containing only 200 μL of medium and 50 μL of XTT/PMS solution) as a background control.

L1210 = assay: Efficacy in mouse tumor models: L1210; format: in vivo; settings: L1210 mouse model, dose 42 mg/kg ip
Experimental: as §1

[3] = system: multidrug resistant (CH^R C5) Chinese Hamster ovary cells; assay: CHO Microtiter Cytotoxicity Assay, multidrug resistant; format: cell-based; settings: Cricetulus griseus, CHRC5, 72 h, 3 days, XTT
Experimental: as §2, §3

Lewis Lung = assay: Efficacy in mouse tumor models: Lewis Lung; format: in vivo; settings: Lewis Lung mouse model, dose 9 mg/kg ip
Experimental: as §1

[4] = system: solid tumor cancers, particularly ovarian cancer and non-small cell lung carcinoma; settings: humans; cited from earlier work

CC[C@@]1(O)C(=O)OCc2c1cc1n(c2=O)Cc2cc3ccccc3nc2-1 [Camptothecin]
toxicity [1]: unacceptable dose limiting toxicity, unpredictable toxicity
effect on topoisomerase II (topoisomerase II): no effect on topoisomerase II
% Inc. in Lifespan, Colon 26 (Colon 26; dose 4 mg/kg ip): 50%
inhibition of topoisomerase I (topoisomerase I): inhibit topoisomerase I

CC[C@@]1(O)C(=O)OCc2c1cc1n(c2=O)Cc2cc3c4c(ccc3nc2-1)OC(CN1CCOCC1)C4 (stereo partly drawn) [Formula III, (8S)-8-ethyl-1,2-dihydro-8-hydroxy-2(4-morpholinylmethyl)11H-furano [3,2-f]-pyrano[3',4':6,7]indolizino[1,2-b]quinoline-9,12(8H,14H)-dione]
IC50 [2]: 5.5 nM
% Inc. in Lifespan, Colon 26 (Colon 26; dose 20 mg/kg sc): 45%
% Inc. in Lifespan, L1210 (L1210): 350%
IC50 [3]: 420 nM

CC[C@@]1(O)C(=O)OCc2c1cc1n(c2=O)Cc2cc3c4c(ccc3nc2-1)OC(CN(C)C)C4 (stereo partly drawn) [Formula IV, (8S)-2-[(dimethylamino)methyl]-8-ethyl-1,2-dihydro-8-hydroxy-11H-furano[3,2-f]-pyrano [3',4':6,7]indolizino[1,2-b]quinoline-9,12(8H,14H)-dione]
IC50 [2]: 18 nM
% Inc. in Lifespan, Lewis Lung (Lewis Lung): 67%
% Inc. in Lifespan, Colon 26 (Colon 26; dose 20 mg/kg sc): 32%
IC50 [3]: 1000 nM

CC[C@@]1(O)C(=O)OCc2c1cc1n(c2=O)Cc2cc3c(CN(C)C)c(O)ccc3nc2-1 [Topotecan, 9-dimethylaminomethyl-10-hydroxycamptothecin, reference compound]
efficacy in clinical tests [4]: demonstrated efficacy against several solid tumor cancers, particularly ovarian cancer and non-small cell lung carcinoma
% Inc. in Lifespan, Colon 26 (Colon 26; dose 20 mg/kg sc): 45%

(S)-10-amino-4-ethyl-4-hydroxy-1H-pyrano[3',4':6,7]indolizino [1,2-b]quinoline-3,14(4H,12H)-dione [CPT-11]
toxicity [1]: adverse toxicity profile
